Patent US20230116733A1, “NOVEL INDAZOLE DERIVATIVE AND USE THEREOF” (KOREA RESEARCH INSTITUTE OFCHEMICAL TECHNOLOGY, priority 2019, published 2023)

How the values were obtained:
[1] = test system: A549; assay: Assay for anticancer activity, cell viability (Cell Counting Kit-8); format: cell-based; details: A549 cells, 10 μM compound, 3 days
Experimental: (§1) Assay for anticancer activity was conducted as follows. Corresponding cancer cells were seeded at a density of 4,000 cells/well into 96-well plates and stabilized for 24 hours. Thereafter, the cells in each well were treated with 10 μM of the each of the compounds for 3 days. Then, cell viability was assayed using Cell Counting Kit-8 from Dojindo.

[2] = test system: HepG2; assay: as above; format: cell-based; details: HepG2 cells, 10 μM compound, 3 days
Experimental: as §1

[3] = molecular target: T1, TRIB2 (Homo sapiens, UniProt Q92519); assay: TRIB2 kinase activity assay (Eurofins, 33P-ATP filter binding); format: biochemical; design: purchased Eurofins; details: human TRIB2, 15 μM gamma-33P-ATP, 120 minutes at room temperature; read-out: TRIB2 Kimase activity assay IC50
T1 sequence (Q92519 1-343): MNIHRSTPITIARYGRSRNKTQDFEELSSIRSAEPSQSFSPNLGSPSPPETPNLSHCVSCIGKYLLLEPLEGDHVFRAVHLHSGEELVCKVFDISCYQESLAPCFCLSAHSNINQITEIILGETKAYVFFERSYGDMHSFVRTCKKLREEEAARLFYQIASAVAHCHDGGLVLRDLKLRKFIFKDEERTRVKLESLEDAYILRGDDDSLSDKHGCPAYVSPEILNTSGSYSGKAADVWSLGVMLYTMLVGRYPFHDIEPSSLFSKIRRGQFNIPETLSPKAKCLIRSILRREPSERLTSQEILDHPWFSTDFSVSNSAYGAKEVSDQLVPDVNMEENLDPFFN
Experimental: TRIB2 kinase activity assay was conducted in Eurofins. […] Afterward, the reaction was terminated with 0.5% phosphoric acid.

IC50 [3] | SMILES | Cell viability (% of Con. 10 μM) A549 [1] | Cell viability (% of Con. 10 μM) HepG2 [2]
10 to 100 nM | O=C(Nc1ccncc1)c1n[nH]c2ccc(-c3ccoc3)cc12 [Compound 34, 5-(furan-3-yl)-N-(pyridin-4-yl)-1H-indazole-3-carboxamide] | 51 % of Con. | 49 % of Con.
1 to 10 nM | CC1NCCc2ccc(NC(=O)c3n[nH]c4ccc(-c5cccnc5F)cc34)cc21 (stereo not drawn) [Compound 63, 5-(2-fluoropyridin-3-yl)-N-(1-methyl-1,2,3,4-tetrahydroisoquinolin-7-yl)-1H-indazole-3-carboxamide] | 4 % of Con. | 7 % of Con.
100 to 1000 nM | O=C(c1n[nH]c2ccc(-c3cccnc3F)cc12)N1CCc2ccccc2C1 [Compound 21, (3,4-dihydroisoquinolin-2-(1H)-yl)(5-(2-fluoropyridin-3-yl)-1H-indazol-3-yl)methanone] |  | 
10 to 100 nM | O=C(NC1CCN(C(=O)c2ccccc2)CC1)c1n[nH]c2ccc(-c3cccnc3F)cc12 [Compound 12, N-(1-benzoylpiperidin-4-yl)-5-(2-fluoropyridin-3-yl)-1H-indazole-3-carboxamide] |  | 
10 to 100 nM | O=C(NC1CCNCC1)c1n[nH]c2ccc(-c3ccnc(F)c3)cc12 [Compound 13, 5-(2-fluoropyridin-4-yl)-N-(piperidin-4-yl)-1H-indazole-3-carboxamide] |  | 
1 to 10 nM | O=C(Nc1ccc2c(c1)CN(C(=O)C(F)(F)F)CC2)c1n[nH]c2ccc(-c3cccnc3F)cc12 [Compound 24, 5-(2-fluoropyridin-3-yl)-N-(2-(2,2,2-trifluoroacetyl)-1,2,3,4-tetrahydroisoquinolin-7-yl)-1H-indazole-3-carboxamide] |  | 10 % of Con.
100 to 1000 nM | O=C(NCCN1CCOCC1)c1n[nH]c2ccc(-c3cccnc3F)cc12 [Compound 22, 5-(2-fluoropyridin-3-yl)-N-(2-morpholinoethyl)-1H-indazole-3-carboxamide] |  | 
100 to 1000 nM | O=C(NC1CCCCC1)c1n[nH]c2ccc(-c3cccnc3F)cc12 [Compound 14, N-Cyclohexyl-5-(2-fluoropyridin-3-yl)-1H-indazole-3-carboxamide] |  | 
100 to 1000 nM | O=C(N[C@H]1CC[C@H](O)CC1)c1n[nH]c2ccc(-c3cccnc3F)cc12 [Compound 16, 5-(2-fluoropyridin-3-yl)-N-((1r,4r)-4-hydroxycyclohexyl)-1H-indazole-3-carboxamide] |  | 
10 to 100 nM | O=C(NC1CCNC1)c1n[nH]c2ccc(-c3cccnc3F)cc12 (stereo not drawn) [Compound 20, 5-(2-fluoropyridin-3-yl)-N-(pyrrodin-3-yl)-1H-indazole-3-carboxamide] |  | 
10 to 100 nM | O=C(NC1CCN(C(=O)c2ccccc2)CC1)c1nn(C(=O)c2ccccc2)c2ccc(-c3cccnc3F)cc12 [Compound 10, 1-benzoyl-N-(1-benzoylpiperidin-4-yl)-5-(2-fluoropyridin-3-yl)-1H-indazole-3-carboxamide] |  | 
100 to 1000 nM | N[C@H]1CC[C@@H](NC(=O)c2n[nH]c3ccc(-c4cccnc4F)cc23)CC1 [Compound 18, N-((1s, 4s)-4-aminocyclohexyl)-5-(2-fluoropyridin-3-yl)-1H-indazole-3-carboxamide] |  | 
1 to 10 nM | O=C(Nc1ccncc1)c1n[nH]c2ccc(-c3cnn(Cc4ccccc4)c3)cc12 [Compound 33, 5-(1-benzyl-1H-pyrazol-4-yl)-N-(pyridin-4-yl)-1H-indazole-3-carboxamide] | 20 % of Con. | 
100 to 1000 nM | O=C(NC1CCN(C(=O)C2CC2)CC1)c1nn(C(=O)C2CC2)c2ccc(-c3cccnc3F)cc12 [Compound 11, 1-(cyclopropanecarbonyl)-N-(1-(cyclopropanecarbonyl)piperidin-4-yl)-5-(2-fluoropyridin-3-yl)-1H-indazole-3-carboxamide] |  | 

SMILES | IC50 [3] | Cell viability (% of Con. 10 μM) A549 [1] | Cell viability (% of Con. 10 μM) HepG2 [2]
N[C@H]1CC[C@H](NC(=O)c2n[nH]c3ccc(-c4cccnc4F)cc23)CC1 [Compound 19, N-((1r, 4r)-4-aminocyclohexyl)-5-(2-fluoropyridin-3-yl)-1H-indazole-3-carboxamide] | 100 to 1000 nM |  | 
